According to patent US6391327B1, “Pesticidal composition” (priority 1998, dated 2002):
Where two headings read alike, the source gives them in different places.

Legend:
[1] = tested on: housefly (Musca domestica) which is resistant to pyrethroid; type: in vivo; details: topical, 2 days later, average of 3
Text: One half (0.5)μL of the following acetone dissolving solution wherein the concentration was adjusted to set forth a dosage given below, was applied to the back thoracic region of a housefly (Musca domestica) which is resistant to pyrethroid and the mortality was examined 2 days later.

[2] = tested on: Formosan subterranean termites (Coptotermes formosanus); experiment: Soil tunneling test in glass tube with Formosan subterranean termites; type: in vivo; details: concentration of application 20 ppm, a week later, three repeats
Procedure: Three (3) cm of soil was packed into the central inner portion of a glass tube that has an inner diameter of 1.7 cm and is 15 cm long, and on one surface of the soil, 0.7 mL of each aqueous solution that has the examined compound formulated to a determined dilution (examined compound and applied concentration given in table 3). Subsequently, 4% agar was inserted onto both surfaces of the soil, 50 worker Formosan subterranean termites (Coptotermes formosanus) and 5 soldier Formosan subterranean termites were deposited into side of the inner part of the tube wherein no compound was applied, and the tunneled soil condition by the termites was examined a week later. The example was repeated thrice.
Within the results of table 3, A represents a condition wherein the termites tunneled through the surface of the soil of the treated side and the non-treated side, B represents a condition wherein the surface of the soil of the treated side was tunneled through and the agar was tunneled halfway, C represents a condition wherein the surface of the soil of the treated side was incompletely tunneled through and the agar had no visible tunneling.

Structure (SMILES) | mortality (%) ([1]; dosage 1.25 μg per insect) | mortality (%) ([1]; dosage 2.5 μg per insect) | mortality (%) ([1]; dosage 5 μg per insect) | mortality (%) ([1]; dosage 10 μg per insect) | results (tunneled soil condition by the termites) [2] | mortality (%) ([1]; dosage 0.625 μg per insect)
C#CCC1=C(C)C(OC(=O)C2C(C=C(C)C)C2(C)C)CC1=O (mixture of isomers) [Prallethrin, (S)-2-methyl-4-oxo-3-prop-2-ynylcyclopent-2-enyl (1R)-cis,trans-2,2-dimethyl-3-(2-methylprop-1-enyl)cyclopropanecarboxylate] | 6.7% | 10% | 30% | – | – | –
C/C(=N\C#N)N(C)Cc1ccc(Cl)nc1 [Compound A, (E)-N^1-[(6-chloro-3-pyridyl)methyl]-N^2-cyano-N^1-methylacetamidine] | 15% | – | 15% | 5% | – | –
CNC(=N[N+](=O)[O-])NCC1CCOC1 (stereo not shown) [Compound B, 1-(tetrahydrofuran-3-yl)methyl-3-methyl-2-nitroguanidine] | 45% | – | – | – | ACA | 10%
CN1COCN(Cc2cnc(Cl)s2)C1=N[N+](=O)[O-] [Compound D, 3-[(2-chloro-5-thiazolyl)methyl]-5-methyl-4-nitroiminotetrahydro-1,3,5-oxadiazine] | – | – | – | – | AAA | –
